Like-named read-outs stand apart in the source and are kept apart here.
Legend:
HepG2 cells = test: HepG2 cytotoxicity assay; details: for IC50: read-out: HepG2 cytotoxicity assay IC50, dose response confirmation; for Unified cytotox: unified HepG2 value across the three screens; for Pb ODA (this manuscript) HepG2 cytoxicity: HepG2 cytotoxicity listed with the Pb ODA data set (this manuscript)
In short: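 HepG2 cells, 2,500 per well in MEM with 10% FBS and 1% NEAA, exposed to compounds for 48 h at 37°C, 5% CO2. Viability read by fluorescence; percent inhibition relative to 50 μM doxorubicin and DMSO controls.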

[1] = tested on: 3D7-strain P. falciparum asexual parasites; test: P. falciparum asexual growth inhibition assay (Pf GIA); assay type: cell-based, Plasmodium falciparum; details: dose response confirmation; read-out: Pf asexual growth inhibition assays IC50
In short: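 Steps: seed parasites (0.25% parasitemia, 2% hematocrit) onto compound dilutions; incubate 72 h at 37°C, 5% O2/5% CO2; freeze at −70°C and thaw; add LDH reaction mix, read A650 after 10 min. Percent growth inhibition derived from chloroquine and DMSO controls, averaged over three biological replicates.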

[2] = tested on: P. berghei ookinete development; details: for % inhibition, Replicate A / % inhibition, Replicate B: primary screen at 1 μM
[3] = read-out: Pb ODA IC50, this manuscript
[4] = read-out: Pb Ookinete development assay IC50, dose response confirmation
[5] = read-out: Pb ODA (this manuscript) IC50, P. berghei ookinete development assay, this manuscript

SMILES | IC50 (HepG2 cells) | Unified cytotox (HepG2 cells) | IC50 [1] | Is compound selective in assay? Pb ODA active? ([2]; 1: YES, 0: NO) | % inhibition, Replicate A [2] | % inhibition, Replicate B [2] | IC50 [2, 3] | IC50 [2, 4] | Pb ODA (this manuscript) HepG2 cytoxicity (HepG2 cells) | Is compound selective in assay? Pb ODA active? [2] | % inhibition, Replicate A ([2]; 1 µM) | % inhibition, Replicate B ([2]; 1 µM) | IC50 [2, 5]
Cc1noc(C)c1-c1cccc(CNCc2ccc(-c3ccc(-c4nc5cccc(C)c5[nH]4)cc3)cc2)c1.O=C(O)C(F)(F)F [TCMDC-133061] | 7940 nM | 7.94 µM | 120 nM | 0 (0: NO) | 50.05% | 37.24% | 2660 nM | 2660 nM | – | – | – | – | –
Cc1cc(=O)c(-c2ccc(Oc3cccc(C(F)(F)F)c3)cc2)c(C)[nH]1 [TCMDC-133308] | 14400 nM | – | 385 nM | – | – | – | – | 733 nM | 14.45 µM | 1 (key: 1: YES; 0: NO) | 59.11% | 56.29% | 730 nM
COc1ccc(-c2cnc(N)c(-c3ccc(C(N)=O)cc3)c2)cc1OC [TCMDC-133349] | 100000 nM | 100.00 µM | 666 nM | 1 (1: YES) | 68.77% | 82.48% | 430 nM | 426 nM | – | – | – | – | –
O=C(Nc1ccc(OC2CCN(Cc3ccc(F)cc3)CC2)c(Cl)c1)c1cccs1.O=C(O)C(F)(F)F [TCMDC-133746] | 38900 nM | – | 242 nM | – | 51.32% | 44.22% | – | 1160 nM | 38.90 µM | 1 (key: 1: YES; 0: NO) | – | – | 1160 nM
O=C(Nc1ccc(OC2CCN(Cc3ccc(F)cc3)C2)c(Cl)c1)c1cccs1.O=C(O)C(F)(F)F (stereo not shown) [TCMDC-133757] | 25100 nM | 25.12 µM | 187 nM | 1 (1: YES) | 48.09% | 57.60% | 1910 nM | 1910 nM | – | – | – | – | –
O=C(Nc1ccc(OC2CCN(Cc3ccc(F)cc3)C2)c(Cl)c1)c1ccc(F)cc1.O=C(O)C(F)(F)F (stereo not shown) [TCMDC-133763] | 24600 nM | 24.55 µM | 878 nM | 0 (0: NO) | 33.23% | 66.02% | 2950 nM | 2950 nM | – | – | – | – | –
CNC(=O)c1ccccc1Nc1nc(Nc2ccc(CCN3CCN(C)CC3)cc2)ncc1Cl.Cl [TCMDC-133800] | 2260 nM | – | 402 nM | – | 66.37% | 76.75% | – | 2320 nM | 2.26 µM | 0 (key: 1: YES; 0: NO) | – | – | 2310 nM
Cc1cccc2nc(-c3ccc(-c4ccc(CN5CC(C)OC(C)C5)cc4)cc3)[nH]c12.O=C(O)C(F)(F)F (stereo not shown) [TCMDC-133823] | 15100 nM | – | 168 nM | – | 122.68% | 88.91% | – | 434 nM | 15.14 µM | 1 (key: 1: YES; 0: NO) | – | – | 430 nM
Cc1cccc2nc(-c3ccc(-c4ccc(CN5CCOCC5)cc4)cc3)[nH]c12.O=C(O)C(F)(F)F [TCMDC-133825] | 27500 nM | – | 2230 nM | – | 75.48% | 125.42% | – | 635 nM | 27.54 µM | 1 (key: 1: YES; 0: NO) | – | – | 630 nM
Cc1cccc2nc(-c3ccc(-c4ccc(CN5CCCC(O)C5)cc4)cc3)[nH]c12.O=C(O)C(F)(F)F (stereo not shown) [TCMDC-133826] | 12900 nM | – | 1480 nM | – | 58.08% | 28.26% | – | 9270 nM | 12.88 µM | 0 (key: 1: YES; 0: NO) | – | – | –

Source: paper PMC6753678, “Fueling Open Innovation for Malaria Transmission-Blocking Drugs: Hundreds of Molecules Targeting Early Parasite Mosquito Stages” (Frontiers in Microbiology, 2019)
